Data from patent publication US9334267B2, “RAF inhibitor compounds” (Deciphera Pharmaceuticals, LLC, priority 2012, dated 2016).
pIC50: −log10 of the molar value.

How the values were obtained:
human wild type C-Raf = target: T1, human wild type C-Raf (Homo sapiens, UniProt P04049); experiment: Enzymatic assay of C-Raf kinase activity (Raf/MEK1 ATPase, coupled PK/LDH, A340); type: biochemical; settings: read-out: Enzyme IC50, nM C-Raf
T1 construct: made in house
Procedure: (§1) Test compounds are evaluated for their inhibitory activities against one or more of human wild type B-Raf, human wild type C-Raf, human B-Raf V600E, human B-Raf V600E+T529I or human B-Raf V600E+G468A. T529I is a threonine to isoleucine B-Raf gatekeeper mutation and G468A is a B-Raf secondary mutation at G1403C in exon 11. The enzymatic assays of B-Raf, C-Raf and B-Raf mutations evaluate a property of Raf and MEK1 complex, which in the presence of ATP, catalyzes an enhanced ATP hydrolysis (Rominger, et al, Arch. Biochem. Biophys. 2007, 464: 130-137; US Patent Publication No. 2006/0211073). The ADP formed is monitored by the well-known coupled PK/LDH (pyruvate kinase/lactate dehydrogenase) system in the form of NADH oxidation, which can be monitored and detected spectrophotometrically by absorbance at 340 nm (A340; for principal of the method see Schindler et al, Science, 2000, 289: 1938-1942). Raf activated MEK1 ATPase activity is a property shared by all forms of Raf proteins.
(§2) Test compounds are evaluated for their inhibitory activities against one or more of wild type B-Raf, wild type C-Raf, B-Raf V600E, B-Raf V600E+T529I and B-Raf V600E+G468A. T529I is a B-Raf gatekeeper mutation and G468A is a B-Raf secondary mutation. The enzymatic assays of B-Raf, C-Raf and B-Raf mutations evaluate a property of Raf and MEK1 complex, which in the presence of ATP, catalyzes an enhanced ATP hydrolysis (Rominger, et al, Arch. Biochem. Biophys. 2007, 464: 130-137). The ADP formed is monitored by the well-known coupled PK/LDH (pyruvate kinase/lactate dehydrogenase) system in the form of NADH oxidation, which can be monitored and detected by absorbance at 340 nm (A340; for principal of the method see Schindler et al, Science, 2000, 289: 1938-1942). Raf activated MEK1 ATPase activity is a property shared by all forms of Raf proteins. In the B-Raf wild type enzymatic assay, the reaction mixture contains 1.2 nM B-Raf, 30 nM MEK1, 1000 uM ATP, 3.5 units (per 100 ul) of PK, 5 units (per 100 ul) of LDH, 1 mM phosphoenol pyruvate (PEP), and 280 uM of NADH. In the C-Raf assay, the reaction mixture contains 0.6 nM C-Raf, 26 nM MEK1, 2000 uM ATP, and the same amount of PK, LDH, PEP and NADH as above. In the B-Raf V600E assay, the reaction mixture contains […] B-Raf V600E, 26 nM MEK1, 200 uM ATP and the same amount of PK, LDH, PEP and NADH as above. In the B-RafV600E+T529I assay, the reaction mixture contains 6.2 nM B-Raf V600E+T529I, 30 nM MEK1, 200 uM ATP and the same amount of PK, LDH, PEP and NADH as above. In the B-Raf V600E+G468A assay, the reaction mixture contains 3.5 nM B-Raf, 30 nM MEK1, 200 uM ATP and the same amount of PK, LDH, PEP and NADH as above. All assays are started by mixing the above mixture with test compound and monitoring at A340 continuously for approximately 5 hr. […] In the aforementioned assays, the enzyme constructs can be screened prior to or after cleavage of the N-terminal purification tag.

human wild type c-KIT = target: T2, human wild type c-KIT (Homo sapiens, UniProt P10721); experiment: Enzymatic assay of c-Kit kinase activity (poly E4Y phosphorylation, coupled PK/LDH); type: biochemical
T2 construct: GST (N); made in house
From the text: c-Kit is an important oncogene, and its overexpression and genetic mutations often occur in melanoma and gastrointestinal stromal tumor (GIST) patients. In the c-Kit enzymatic assay, the phosphorylation of poly E4Y by ATP catalyzed by human c-Kit is monitored spectrophotometrically. The ADP produced from the kinase reaction is coupled to pyruvate kinase/lactate dehydrogenase (PK/LDH) reactions where NAD is formed from pyruvate and NADH. NADH can be detected by absorbance at 340 nm, as described above for enzymatic assays of kinase activities of B-Raf, C-Raf and B-Raf mutations.
The assay reaction mixture includes 6 nM human wild type c-KIT, 1 mg/mL Poly (Glu,Tyr) (Sigma), 1 mM Phosphoenol-pyruvate, 280 μM NADH, 5 U/3.5 U (per 100 ul) Pyruvate Kinase/Lactate Dehydrogenase, 85 mM Tris, pH 7.5, 17 mM MgCl2, 0.0042% Triton® X-100, 0.005% BSA, 1% DMSO. Test compound is incubated with the reaction mixture for 0.5 hour before adding 200 μM ATP to start the reaction at 30° C.

HT-29 cells = experiment: HT-29 cell proliferation assay (resazurin); type: cell-based; settings: Homo sapiens, V600E mutation, read-out: Cell Proliferation Inhibition IC50, nM HT-29
Procedure: HT-29 cells (catalog #HTB-38) are obtained from the American Type Culture Collection (ATCC, Manassas, Va.). Briefly, cells are grown in McCoy's 5A supplemented with 10% characterized fetal bovine serum (Invitrogen, Carlsbad, Calif.), and 1% Penicillin/Streptomycin/L-Glutamine at 37 degrees Celsius, 5% CO2, and 95% humidity. Cells are allowed to expand until reaching 75-90% confluency at which point they are subcultured or harvested for assay use. A serial dilution of test compound is dispensed into a 384-well black clear bottom plate in triplicate. One thousand two-hundred fifty cells are added per well in 50 μL complete growth medium in the 384-well plate. Plates are incubated for 67 hours at 37 degrees Celsius, 5% CO2, and 95% humidity. At the end of the incubation period, 10 μL of a 440 μM solution of resazurin (Sigma, St. Louis, Mo.) in PBS is added to each well of the plate and plates are incubated for an additional 5 hours at 37 degrees Celsius, 5% CO2, and 95% humidity. Plates are read on a Synergy2 reader (Biotek, Winooski, Vt.) using an excitation of 540 nm and an emission of 600 nm. Data is analyzed using Prism software (Graphpad, San Diego, Calif.) to calculate IC50 values.
The A375, HT-29, and Colo-205 cells (ATCC) harbor a V600E mutation.

human B-Raf V600E = target: T3, human B-Raf V600E (Homo sapiens, UniProt P15056, V600E); experiment: Enzymatic assay of B-Raf V600E kinase activity (Raf/MEK1 ATPase, coupled PK/LDH, A340); type: biochemical; settings: read-out: Enzyme IC50, nM B-Raf V600E
T3 construct: B-RafV600E (residues 433-726 containing V600E mutation) containing an N-terminal purification tag is expressed and purified; made in house
Procedure: as §1
B-RafV600E (residues 433-726 containing V600E mutation) containing an N-terminal purification tag is expressed and purified essentially as described previously (Wan et al, Cell, 2004, 116, 855-867).
as §2

T3 sequence (P15056 433-726 V600E): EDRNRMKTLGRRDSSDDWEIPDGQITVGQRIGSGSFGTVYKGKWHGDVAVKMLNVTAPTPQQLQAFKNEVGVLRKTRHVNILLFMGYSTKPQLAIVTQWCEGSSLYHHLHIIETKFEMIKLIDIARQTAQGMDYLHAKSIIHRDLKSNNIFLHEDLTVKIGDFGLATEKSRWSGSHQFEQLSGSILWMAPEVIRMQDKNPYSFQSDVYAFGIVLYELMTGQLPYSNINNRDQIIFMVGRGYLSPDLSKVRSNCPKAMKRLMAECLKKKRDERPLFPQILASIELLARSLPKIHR
T2 sequence (P10721 26-976): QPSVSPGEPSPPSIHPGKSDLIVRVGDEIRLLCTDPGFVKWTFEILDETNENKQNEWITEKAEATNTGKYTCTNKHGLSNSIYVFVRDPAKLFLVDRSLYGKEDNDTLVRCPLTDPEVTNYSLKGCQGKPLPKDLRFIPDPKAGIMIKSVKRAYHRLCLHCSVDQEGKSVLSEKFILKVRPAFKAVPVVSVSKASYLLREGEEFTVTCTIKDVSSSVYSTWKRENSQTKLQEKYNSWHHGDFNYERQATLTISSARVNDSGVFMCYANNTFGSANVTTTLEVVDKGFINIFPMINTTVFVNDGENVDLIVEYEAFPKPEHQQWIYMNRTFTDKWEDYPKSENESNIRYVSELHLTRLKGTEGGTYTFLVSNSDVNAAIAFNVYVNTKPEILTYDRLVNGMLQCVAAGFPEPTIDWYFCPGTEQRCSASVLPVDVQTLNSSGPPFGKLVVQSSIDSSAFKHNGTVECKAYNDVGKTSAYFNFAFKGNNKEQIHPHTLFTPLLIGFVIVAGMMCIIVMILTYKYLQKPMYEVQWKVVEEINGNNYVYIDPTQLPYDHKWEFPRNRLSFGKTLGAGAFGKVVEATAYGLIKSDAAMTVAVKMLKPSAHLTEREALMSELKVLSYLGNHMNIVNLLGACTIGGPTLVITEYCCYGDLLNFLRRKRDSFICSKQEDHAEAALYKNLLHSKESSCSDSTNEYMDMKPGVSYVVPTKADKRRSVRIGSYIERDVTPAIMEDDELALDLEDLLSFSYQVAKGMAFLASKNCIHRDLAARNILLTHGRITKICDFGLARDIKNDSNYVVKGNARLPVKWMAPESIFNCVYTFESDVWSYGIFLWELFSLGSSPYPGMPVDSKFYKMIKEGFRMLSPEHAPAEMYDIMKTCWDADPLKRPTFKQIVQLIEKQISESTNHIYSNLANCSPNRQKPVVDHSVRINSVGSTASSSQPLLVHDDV
T1 sequence (P04049 whole entry): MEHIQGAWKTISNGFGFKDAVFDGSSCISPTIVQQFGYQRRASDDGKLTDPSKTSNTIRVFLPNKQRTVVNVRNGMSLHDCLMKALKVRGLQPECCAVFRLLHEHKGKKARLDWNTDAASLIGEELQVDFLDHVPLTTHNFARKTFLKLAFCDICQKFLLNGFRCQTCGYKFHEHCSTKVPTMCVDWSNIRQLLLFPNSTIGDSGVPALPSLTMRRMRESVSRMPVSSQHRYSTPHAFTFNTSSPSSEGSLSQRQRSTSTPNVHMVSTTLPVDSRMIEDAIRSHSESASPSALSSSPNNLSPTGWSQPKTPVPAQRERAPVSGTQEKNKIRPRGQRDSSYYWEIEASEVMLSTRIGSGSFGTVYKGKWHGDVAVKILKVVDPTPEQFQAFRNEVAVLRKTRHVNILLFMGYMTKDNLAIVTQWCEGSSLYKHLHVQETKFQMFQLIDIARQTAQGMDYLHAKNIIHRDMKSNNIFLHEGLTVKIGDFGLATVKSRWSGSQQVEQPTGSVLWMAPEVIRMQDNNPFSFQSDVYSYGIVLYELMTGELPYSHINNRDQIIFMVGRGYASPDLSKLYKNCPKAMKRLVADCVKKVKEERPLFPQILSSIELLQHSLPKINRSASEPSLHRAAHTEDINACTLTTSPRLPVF

Structure (SMILES)	IC50 (human wild type C-Raf) [nM]	pIC50 (human wild type c-KIT)	IC50 (HT-29 cells) [nM]	IC50 (human B-Raf V600E) [nM]
COCCNc1ncc2cc(-c3cc(NC(=O)NC4CC(C)(C)C4)c(F)cc3C)c(C)nc2n1 [Example 31, 1-(3,3-Dimethylcyclobutyl)-3-(2-fluoro-5-(2-((2-methoxyethyl)amino)-7-methylpyrido[2,3-d]pyrimidin-6-yl)-4-methylphenyl)urea]	< 150	> 6.82	< 100	< 150
CNc1ncc2cc(-c3cc(NC(=O)NCCC(C)(C)F)c(F)cc3C)cnc2n1 [Example 34, 1-(3-Fluoro-3-methyl-butyl)-3-[2-fluoro-4-methyl-5-(2-methylaminopyrido[2,3-d]pyrimidin-6-yl)phenyl]urea]	< 150	> 6.82	< 100	< 150
CNc1ncc2cc(-c3cc(NC(=O)NCCC(C)(C)C)c(F)cc3F)cnc2n1 [Example 36, 1-(2,4-Difluoro-5-(2-(methylamino)pyrido[2,3-d]pyrimidin-6-yl)phenyl)-3-(3,3-dimethylbutyl)urea methanesulfonate]	< 150	> 6.82	100 to 1000	< 150

The remaining lines, values ahead:

IC50 (human wild type C-Raf) [nM]	pIC50 (human wild type c-KIT)	IC50 (HT-29 cells) [nM]	IC50 (human B-Raf V600E) [nM]	Structure (SMILES)
< 150	> 6.82	< 100	< 150	CNc1ncc2cc(-c3cc(NC(=O)NCCC(C)(C)C)c(F)cc3Br)c(C)nc2n1 [Example 32, 1-(4-Bromo-2-fluoro-5-(7-methyl-2-(methylamino)pyrido[2,3-d]pyrimidin-6-yl)phenyl)-3-(3,3-dimethylbutyl)urea]
< 150	> 6.82	< 100	< 150	CC(=O)Nc1ncc2cc(-c3cc(NC(=O)NCCC(C)(C)C)c(F)cc3C)c(C)nc2n1 [Example 33, N-(6-(5-(3-(3,3-Dimethylbutyl)ureido)-4-fluoro-2-methylphenyl)-7-methylpyrido[2,3-d]pyrimidin-2-yl)acetamide]
< 150	> 6.82	< 100	< 150	CNc1ncc2cc(-c3cc(NC(=O)NCCC(C)(C)C)c(F)cc3C)cnc2n1 [Example 35, 1-(3,3-Dimethylbutyl)-3-[2-fluoro-4-methyl-5-(2-methylaminopyrido[2,3-d]pyrimidin-6-yl)phenyl]urea]
